Measurements taken from US5574010A, “Treatment of pancreatic tumors with peptide YY and analogs thereof” (The Regents of The University of California, priority 1994, dated 1996).

Columns and labels:
[1] = test system: human Mia PaCa-2 cells; assay: In vivo growth inhibition of orthotopically transplanted pancreatic ductal adenocarcinoma; conditions: male athymic mice, orthotopic Mia PaCa-2; 200 pmol/kg/hr via mini-osmotic pumps for four weeks; vs saline control
Protocol: The human pancreatic ductal adenocarcinoma Mia Paca-2 was examined for in vivo growth inhibition by peptide YY and Analog #1. Seventy thousand to 100,000 human Mia PaCa-2 cells were orthotopically transplanted into 48 male athymic mice. After one week, the animals were treated with either PYY or Analog #1 at 200 pmol/kg/hr via mini-osmotic pumps for four weeks. The paired cultures received saline. At sacrifice, both tumor size and mass were measured. Control mice had significant human cancer growth within the pancreas as evidenced by histologic sections. At 9 weeks, ninety percent (90%) of control mice had substantial metastatic disease.

[2] = test system: PANC-1; assay: MTT viability assay, in vitro anti-proliferative activity; assay type: cell-based, human; conditions: 36 hours, vs saline control
Protocol: (§1) PANC-1 and MiaPaCa-2 are two human pancreatic adenocarcinomas cancer cell lines which are available commercially from suppliers such as American Type Culture Collection, ATCC (Rockville, Md.). For this example, the two tumor cells were grown in RPMI-1640 culture media supplemented with 10% fetal bovine serum, 29.2 mg/L of glutamine, 25 μg gentamicin, 5 ml penicillin, streptomycin, and fungizone solution (JRH Biosciences, Lenexa, Kans.) at 37° Celsius in a NAPCO water jacketed 5 % CO2 incubator. All cell lines were detached with 0.25 % trypsin (Clonetics, San Diego, Calif.) once to twice a week when a confluent monolayer of tumor cells was achieved. Cells were pelleted for 7 minutes at 500 g in a refrigerated centrifuge at 4 ° Celsius, and resuspended in trypsin free fortified RPMI 1640 culture media. Viable cells were counted on a hemocytometer slide with trypan blue.
(§2) Ten thousand, 20,000, 40,000 and 80,000 cells of each type were added to 96 well microculture plates (Costar, Cambridge, Mass.) in a total volume of 200 μl of culture media per well. Cells were allowed to adhere for 24 hours prior to addition of the PYY or Analog #1 peptides. Fresh culture media was exchanged prior to addition of peptides. In vitro incubation of pancreatic tumor cells with either PYY or Analog #1 was continued for 6 hours and 36 hours in length. PYY was added to cells at doses of 250 pmol, 25 pmol, and 2.5 pmol per well (N =14). Analog #1 was added to cells cultures at doses of 400 pmol, 40 pmol, and 4 pmol per well. Control wells received 2 μl of 0.9% saline to mimic the volume and physical disturbance upon adhered tumor cells. Each 96 well plate contained 18 control wells to allow for comparison within each plate during experimentation. Ninety-six (96) well plates were repeated 6 times with varying concentrations of PYY and Analog #1 in both the PANC-1 and MiaPaCa-2 cells.
(§3) At the end of the incubation period, 3-(4,5-dimethylthiazolyl-2-yl)-2,5-diphenyltetrazolium Bromide, MTr tetrazolium bromide (Sigma, St. Louis, Mo.) was added to fresh culture media at 0.5 mg/ml. Culture media was exchanged and tumor cells were incubated for 4 hours with MTT tetrazolium bromide at 37° Celsius. At the end of incubation, culture media was aspirated. Formazon crystal precipitates were dissolved in 200 μl of dimethyl sulfoxide (Sigma, St. Louis, Mo.). Quantitation of solubilized formazon was performed by obtaining absorption readings at […] wavelength on an ELISA reader (Molecular Devices, Menlo Park, Calif.). The MTT assay measures mitochondrial NADH dependent dehydrogenase activity, and it has been among the most sensitive and reliable method to quantitative in vitro chemotherapy responses of tumor cells. (Alley, M. C., Scudiero, D. A., Monk, A., Hursey, M. L., Dzerwinski, M. J., Fine, D. L., Abbott, B. J., Mayo, J. G., Shoemaker, R. H. and Boyd, M. R., Feasibility of drug screening with panels of human tumor cell lines using a microculture tetrazolium assay Cancer Res., 48:589-601, 1988; Carmichael, J., DeGraff, W. G., Gazdar, A. F., Minna, J. D. and Mitchell, J. B., Evaluation of a tetrazolium-based semiautomated colorimetric assay: Assessment of chemosensitivity testing. Cancer Res., 47:936-942, 1987; McHale, A. P., McHale, L., Use of a tetrazolium based colorimetric assay in assessing photoradiation therapy in vitro. Cancer Lett., 41:315-321, 1988; and Saxton, R. E., Huang, M. Z., Plante D., Fetterman, H. F., Lufkin, R. B., Soudant, J., Castro, D. J., Laser and daunomycin chemophototherapy of human carcinoma cells. J. Clin. Laser Med. and Surg., 10(5):331-336, 1992.)
(§4) Analysis of absorption readings at 550 nm were analyzed by grouping wells of the same test conditions and verifying differences occurring between control and the various peptide concentration treatments by one-way ANOVA. Once statistical significance was achieved, P <0.05, each test group was compared to its paired control group by Student's T-test within each 96 well plate. […]

[3] = test system: MiaPaCa-2; assay: as above; assay type: cell-based, human; conditions: Mia PaCa-2, 36 hours, vs saline control
Protocol: as §1, §2, §3, §4

PYY: 36 amino acid residue peptide amide isolated originally from porcine intestine; the species of the PYY tested is not stated [Peptide YY]
Tumor mass decreased [1]: 27% | Percent Reduction in Tumor Growth(%) Compared to Control ([2]; 2.5 pmol per well): 9.8% | Percent Reduction in Tumor Growth(%) Compared to Control ([2]; 25 pmol per well): 14.7% | Percent Reduction in Tumor Growth(%) Compared to Control ([2]; 250 pmol per well): 25.7% | Percent Reduction in Tumor Growth(%) Compared to Control ([3]; 2.5 pmol per well): 0.5% | Percent Reduction in Tumor Growth(%) Compared to Control ([3]; 25 pmol per well): 12.8% | Percent Reduction in Tumor Growth(%) Compared to Control ([3]; 250 pmol per well): 15.4%
